Assay results reported in a melting point compilation (Tetko et al.; mined from patent text by program, amines drawn as free bases though some values may be those of a salt).

| Structure (SMILES) | melting point [°C] |
| --- | --- |
| CC(C)(C)OC(=O)N[C@H](C(=O)N1CCC[C@H]1C(=O)NC1CCc2nc(N)sc2C1)C(c1ccccc1)c1ccccc1 (some centres undefined) | 127 to 130 |
| O=C1CCCC(c2ccc(F)cc2)CN1 (centres undefined) | 158 to 160 |
| CN(C)C(=O)c1cn(Cc2ccccc2)c(=O)c2c1c1cc(F)ccc1n2C | 192 to 193 |
| CN1C(=O)CC[C@]2(C)c3ccc(-c4ccc(O)c(Cl)c4)cc3CC[C@@H]12 | 245 |
| COc1ccc(/C=C/c2ccncc2)cc1OCCCCCc1ccccc1 | 98 to 100 |
| Nc1c(C(=O)c2cc(F)cc(F)c2)[nH]c2cc(Cl)ccc12 | 149 to 151 |
| COc1ccc(-c2c(NC(=O)Nc3ccc(F)cc3F)c(=O)n(C)c3ccc(C)cc23)cc1OC | 231 to 233 |
| CCCC1(C)C(=O)N(COC(=O)c2c(Cl)cccc2Cl)S(=O)(=O)N1C (centres undefined) | 93 to 95 |
| COc1ccccc1CC(C)NCC(O)c1cccc(Cl)c1 (centres undefined) | 85 to 87 |
| CC1C(=O)c2ccccc2C1NCCc1ccccc1 (centres undefined) | 82 to 83 |
| Cc1cc(C(=O)NN=C(N)CS(=O)(=O)c2ccccc2)oc1C | 197 to 199 |
| CC1(C)CC(C)(C)CC2(CCC(=O)N2)C1 | 158 to 160 |
| N#Cc1c(NC(=O)CO)cccc1N1CCCCC1 | 121 to 124 |
| CCC(CC)c1nnc(NC)n(N)c1=O | 119 to 120 |
| S=C(NC1CCCCC1)N1CCc2[nH]cnc2C1 | 183 |
| CCN(CC)C1=CC(=O)C(=O)C=C1N(CC)CC | 100 to 103 |
| CC(C)(C)c1ccc(CCC(CC2CCCCC2)OC(=O)Oc2ccc(C(=O)O)cc2)cc1NC(=O)CC1c2ccccc2Oc2ccccc21 (centres undefined) | 139 to 141 |
| COC(=O)CCCCc1cc2cc(C(F)(F)F)ccc2n1S(=O)(=O)c1cccc(C(C)(C)C)c1 | 77 |
| Cc1cc(C)cc(C(=O)c2c(C(C)C)c(=O)[nH]c(=O)n2Cc2ccc(N)cc2)c1 | 173 to 175 |
| Cc1nc(C(C)(C)C)ccc1/C=C/C(=O)Nc1ccc2cc[nH]c2c1 | 182 |
| COc1cc(CCCCC2OC(=O)NC2=O)ccc1OCc1csc(/C=C/c2ccccc2)n1 (centres undefined) | 167 to 168 |
| O=c1c2c(oc3c1nnn3Cc1ccccc1)CCS2 | 157 to 160 |
| COc1ccc(-c2nnc3c4ccccc4c(Nc4ccc(NC(=O)c5ccccn5)cc4)nn23)cc1 | 301 to 305 |
| Cc1ccc(O)c(C)c1N | 177 to 179 |

| Structure (SMILES) | melting point [°C] |
| --- | --- |
| CN(C)C(=O)Cc1nnc2n1-c1ccc(Cl)cc1C(c1ccccc1)=NC2 | 204 to 206 |
| O=C(Nc1c(Cl)cccc1Cl)N(Cc1ccccc1)CC1(c2ccccc2)CCCC1 | 125 to 127 |
| CCOC(=O)CNC(=O)CC(O)CCl (centres undefined) | 53 to 54 |
| Nc1ccc(Cn2cnc3c(-c4ccco4)ncnc32)cc1 | 195 to 197 |
| CCCCC(CC)CN1C(=O)C(=Cc2cc3sc(-c4ccc(N(c5ccccc5)c5ccccc5)cc4)cc3s2)C(C)=C(C#N)C1=O (centres undefined) | 208 to 213 |
| COC1=CC(=O)C2=C(C1=O)C(Cl)C(Cl)CC2 (centres undefined) | 119 to 123 |
| CC(C)(C)N(NC(=O)c1ccccc1)C(=S)c1ccccc1 | 169 to 171 |
| O=C(Nc1cncc(Cl)n1)C1=C(O)c2ccccc2S(=O)(=O)N1 | 234 to 235 |
| COC(=O)CCc1ncc2oc(C(=O)OC)c(O)c2c1C(=O)OC | 117 to 118 |
| CCn1ncnc1COc1nn2c(-c3ccccc3F)nncc2c1-c1ccco1 | 182 to 183 |
| Clc1cnc2ccc(Cl)c(Cl)c2n1 | 118 to 119 |
| O=C(Nc1ncnc2c1c(Cl)cn2C1CC(O)C(CO)O1)c1ccccc1 (centres undefined) | 190 |
| CC1(C)CC(OC(=O)CCC(=O)OC2CC(C)(C)N(OC3CCCCC3)C(C)(C)C2)CC(C)(C)N1OC1CCCCC1 | 122 to 126 |
| OC1Cc2ccc(F)cc2Sc2ccc(I)cc21 (centres undefined) | 162 |
| C/C(=C(\C#N)C(=S)/N=C/N(C)C)N1CCCN(c2ccc(C#N)cc2)CC1 | 120 to 126 |
| CC(=O)Nc1nc(NC(C)=O)nc(-c2ccc(S(=O)(=O)c3ccccc3)cc2)n1 | > 260 |
| CC(C)(C)OC(=O)N1CCN(CC(O)COc2ccc(CC#N)cc2)CC1 (centres undefined) | 98 to 100 |
| Cc1ccc(S(=O)(=O)Nc2nc(-c3cccc(-c4ccccc4)c3)cs2)cc1 | 153 to 155 |
| Nn1nc(-c2ccc(Cl)cc2)cc1OCCN1CCCC1 | 131 |
| Clc1ccc(C(c2ccccc2)c2cn[nH]c2)c(Cl)c1 (centres undefined) | 131 |
| O=C(Nc1ccc(F)cc1)NC1CCN(S(=O)(=O)c2ccc(Cl)cc2)CC1 | 160 to 162 |
| CCCC(N)(CO)CCCc1ccc(Sc2cccc(OCc3ccccc3)c2)cc1Cl (single isomer, unassigned; (+)) | 55 to 57 |
| CCCCCCCCCCCC#Cc1cnccc1C=CC(=O)O | 177 to 178 |
| Cn1c(-c2cccc3[nH]c(-c4ccncc4)cc23)n[nH]c1=O | > 300 |

| Structure (SMILES) | melting point [°C] |
| --- | --- |
| CN(O)C(=O)Nc1cc(Cl)cc(Cl)c1 | 131 to 132 |
| COc1cc2ncnc(N3c4ccccc4CC3CO)c2cc1OC (centres undefined) | 146 to 147 |
| CC1CCNC(C)C1(C)CCCO (centres undefined) | 89 to 91 |
| CCSCCCCCSCCCCC(=O)O | 49.5 to 50 |
| CCCCCCCCCCCCOCCCNC(=O)c1cc(OCC(=O)O)c2ccccc2c1O | 150 |
| NS(=O)(=O)C1=CC2=C(OCCO)CCSC2S1 (centres undefined) | 110 to 113 |
| CC(c1noc(C(F)F)n1)N1C(=O)C2(COc3cc4c(cc32)OCO4)c2c(Cl)cccc21 (centres undefined) | 179 to 182 |
| Cn1cc(CCO)c2c3c(c(-c4ccccc4Cl)cc21)C(=O)NC3=O | 225 to 229 |
| Oc1ccc(-c2nc3ccc(O)cc3s2)cc1 | 284 to 286 |
| CC(C)NC1=NS(=O)(=O)c2ccc(S(=O)(=O)c3ccccc3)cc2N1 | 178 to 180 |
| Cn1c(=O)nc(Sc2ccccc2)sc1=S | 116 to 118 |
| Cc1cc2nc(S(=O)(=O)CC(F)(F)F)[nH]c2cc1F | 164 to 166 |
| CC(=O)NC1CCC(Nc2ncc3c(N)cc(=O)n(CCCO)c3n2)CC1 (centres undefined) | > 300 |
| CCOC(=O)/C=C(C)/C=C/C=C(C)/C=C(/F)c1c(C)cc(OC)c(C)c1C | 74 to 87 |
| Cc1nc(C(=O)O)co1 | > 250 |
| Oc1c(C(=S)NCc2ccc(Cl)cc2)cnc2ccc(CN3CCOCC3)cc12 | 215 to 216 |
| CCc1nc(Cl)c(C(=O)NC)n1Cc1ccc2oc(-c3ccccc3N)c(Br)c2c1 | 68 to 70 |
| CCOC(=O)C1=C(C)Nc2nccn2C1C (centres undefined) | 185 to 186 |
| ON=C1CCc2cc(F)ccc21 | 150 to 155 |
| COC1CN(c2ccc(N3C[C@H](CO)OC3=O)cc2F)C1 | 131 to 132 |
| CCCc1nn(C)c2c(OCCOc3ccc(CC(OCC)C(=O)OCC)cc3)nc(-c3ccccc3)nc12 (centres undefined) | 80 to 82 |
| O=C(c1ccc2c(c1)OCCO2)c1cc2ccccc2o1 | 68 to 70 |
| Cc1c(-n2ccnc2)[nH]c2ccccc12 | 156 to 158 |

The next lines start with the values.

| melting point [°C] | Structure (SMILES) |
| --- | --- |
| 104 to 106 | COC(=O)C(O)C(=O)C(C)Oc1ccc(Oc2nc3ccc(Cl)cc3s2)cc1 (centres undefined) |
| 116 to 118 | O=C1c2ccc(Cl)cc2C(O)N1CCO[N+](=O)[O-] (centres undefined) |
| 126 to 128 | O=[N+]([O-])c1ccc(NC2CC2)cc1 |
| 76.5 to 78 | CCc1cnc(-c2ccc(OC)cc2)c(-c2ccc(OC)cc2)n1 |
| 141 | Cc1cc(N)c([N+](=O)[O-])cc1NCCO |
| 91 to 93 | N#CC(CC(=O)c1ccc(C(F)(F)F)cc1)C1CC1 (centres undefined) |
| 115 to 117 | O=C(NNc1ccc([N+](=O)[O-])cc1)C(F)(F)F |
| 92 to 94 | Nc1ccc(C(=O)c2ncco2)c(Cl)c1 |
| 169 to 170 | NC(=NO)c1c(F)ccc(OCc2nc3cc(Cl)ccc3s2)c1F |
| 129 to 130 | Cc1c(CC(=O)O)oc2ccc(F)cc12 |
| 52 | CN1CCC(C(=O)NO)(S(=O)(=O)c2ccc(Oc3ccc(Cl)cc3)cc2)CC1 |
| 155 to 160 | Cc1c(F)cccc1N1CC(C(=O)O)CC1=O (centres undefined) |
| 160 to 162 | COc1cc(-c2csc(NCCCCCC(=O)Nc3ccc(C(F)(F)F)cc3)n2)cc([N+](=O)[O-])c1O |
| 108 | O=C(NC(=O)C(c1ccccc1)c1ccccc1)OCC1CC1 |
| 58 to 60 | O=[N+]([O-])c1ccc(Sc2ccccc2)c(CCl)c1 |
| 195 to 197 | COc1ccc(C(=O)Nc2ccccc2)cc1NCc1ccc(C(C)(C)C)cc1 |
| 62 to 64 | COC(=O)C(C)Oc1ccc(Oc2ccc(Br)cc2F)cc1 (centres undefined) |

| melting point [°C] | Structure (SMILES) |
| --- | --- |
| 172 to 173 | CNC(=O)c1cc(-c2ccc(OC)c(Cl)c2)nn(CC2CC2)c1=O |
| 106 to 109 | COc1cc(-c2ccc(C)cc2)c(C(C)=NOCc2ccc([N+](=O)[O-])cc2)cc1O |
| 49 to 54 | COc1ccc(C(=O)CC(C)C)c(Cl)c1Cl |
| 128 to 129 | CCC(=NNc1ccccc1)c1cc(Cl)ccc1NS(=O)(=O)C(F)(F)F |
| 118 to 119 | COc1ccc(COC(=O)NCCc2c[nH]c3ccc(F)cc23)cc1 |
| 227 | O=C(CS(=O)Cc1ccc([N+](=O)[O-])cc1)NO (centres undefined) |
| 77 to 78 | CC(=O)COc1ccc([N+](=O)[O-])cc1 |
| 225 to 226 | CCOc1ccc(-c2nnc(Nc3ccc(Br)c(Cl)c3)s2)cc1 |
| 116 to 118 | Cc1ccc(C(=O)O)c(OCc2ccc(OCCc3nc(-c4ccccc4)oc3C)cc2)c1 |
| 150 to 152 | CC(C)Cc1ccc(C(C)C(=O)NCCN(O)C(N)=O)cc1 (centres undefined) |
| 173 to 175 | O=C(NNS(=O)(=O)c1ccccc1)c1cccc2cccnc12 |
| 102 to 103 | CCOC(=O)c1cn(Cc2ccc(OCc3ccccc3)cc2)nc1-c1ccccc1 |
| 165 to 168 | CSC1C(=O)Nc2c(C(=O)c3ccc(F)cc3)cccc21 (centres undefined) |
| 57 to 58 | CCOC(=O)C=CC(=O)c1ccc(Oc2ccc(Cl)cc2)cc1 |
| 164 to 166 | CC(=O)Nc1ccc(C(C)=C(Cl)Cl)cc1 |
| 159 to 163 | Cc1ccccc1S(=O)(=O)NC(=O)c1ccc2c(c1)CCN2Cc1cccc([N+](=O)[O-])c1 |
